{"source": "paper PMC12257356", "about": "“Structure-guided engineering of a polyphosphate kinase 2 class III from an Erysipelotrichaceae bacterium to produce base-modified purine nucleotides” (RSC Chemical Biology, 2025)", "key": {"[1]": {"target": "T1, EbPPK2 (polyphosphate kinase 2 class III from an Erysipelotrichaceae bacterium) (Erysipelotrichaceae bacterium, UniProt P0DY74)", "T1 construct": "gene DHS57_05705; purified; 146 kDa homotetramer", "T1 sequence (P0DY74 1-298)": "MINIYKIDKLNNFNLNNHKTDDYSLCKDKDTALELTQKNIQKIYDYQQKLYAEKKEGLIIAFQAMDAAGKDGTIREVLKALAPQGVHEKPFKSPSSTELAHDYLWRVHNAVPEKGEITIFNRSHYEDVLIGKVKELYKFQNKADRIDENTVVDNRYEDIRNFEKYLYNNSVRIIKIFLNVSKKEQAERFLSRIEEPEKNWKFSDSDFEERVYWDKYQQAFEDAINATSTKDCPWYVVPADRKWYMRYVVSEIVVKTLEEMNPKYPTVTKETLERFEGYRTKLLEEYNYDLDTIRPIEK", "test": "HPLC conversion to NDP/NTP", "type": "biochemical", "conditions": "1 mM NMP, 1 μM enzyme, 6.1 g/L sodium polyphosphate, 20 mM MgCl2, 20 mM Tris pH 8, 30 °C, 10 min"}, "[2]": {"target": "T1, EbPPK2 (polyphosphate kinase 2 class III from an Erysipelotrichaceae bacterium)", "test": "X-ray crystal structure", "conditions": "1.7 Å; ternary complex with polyP and Mg2+; nucleotide-binding pocket of the active site"}}}
{"smiles": "Nc1ncnc2c1ncn2[C@@H]1O[C@H](COP(=O)(O)O)[C@@H](O)[C@H]1O", "note": "[1a, AMP]", "values": [{"measurement": "HPLC conversion to NDP/NTP", "setting": "[1]", "result": "Starting from AMP (1a), the reaction approached a distribution of AMP"}]}
{"smiles": "Nc1ncnc2c1ncn2[C@@H]1O[C@H](COP(=O)(O)OP(=O)(O)CP(=O)(O)O)[C@@H](O)[C@H]1O", "note": "[adenosine-5′-[(β,γ)-methyleno]triphosphate]", "values": [{"measurement": "X-ray crystal structure", "setting": "[2]", "result": "EbPPK2 in complex with the non-hydrolysable ATP analogue adenosine-5′-[(β,γ)-methyleno]triphosphate (ACP) and polyP (PDB: 9IGQ)"}]}
{"smiles": "Nc1nc2c(ncn2[C@@H]2O[C@H](COP(=O)(O)O)[C@@H](O)[C@H]2O)c(=O)[nH]1", "note": "[5a, GMP]", "values": [{"measurement": "HPLC conversion to NDP/NTP", "setting": "[1]", "result": "GMP and GMP-like analogues were phosphorylated more slowly by EbPPK"}]}
